Data reported in paper PMC3479139, “Diverse Small Molecule Inhibitors of Human Apurinic/Apyrimidinic Endonuclease APE1 Identified from a Screen of a Large Public Collection” (PLoS ONE, 2012).
Blank lines part the entries; values can stand above or below the molecule they belong to.

Assays:
HeLa cells = experiment: MMS potentiation assay (CellTiter Glo viability); format: cell-based, human; set-up: key: N.A., no activity observed; P, positive; I, inconclusive; N.T., not tested; conditions: for MMS Assay: potentiation of the genotoxic effect of methylmethane sulfonate
Protocol: HeLa cells were plated at 6000 cells/well in DMEM culture medium containing 10% FBS into white solid bottom 384-well cell culture plates. The plates were incubated at 37°C overnight for cell attachment, followed by media replacement. The fresh medium contained serial dilutions of compounds of interest in the presence (0.4 mM final) or absence of MMS. The plates were incubated for 24 h at 37°C. Cell viability was determined by luminescence detection after an addition of 15 µL of CellTiter Glo reagent (Promega, Madison, WI). Percent viability was calculated for each concentration of compound tested in duplicate by relating the corresponding luminescence to that of a negative DMSO vehicle control. MMS potentiation trends were defined as follows: negative (-), if cell viability in the compound-plus-MMS treatment was the same as that of the DMSO-plus-MMS control (overlapping dose-response curves); inconclusive (I), if the shift in the cell viability dose-response upon MMS inclusion relative to compound-alone was less than 30%; and positive (P), if the difference between the compound-plus-MMS and compound-alone curves was at least 30%, and maintained within at least a two-fold compound concentration span.
To examine the biological prospects of the top compounds, we tested their ability to inhibit APE1 DNA repair activity by assessing enhancement of MMS toxicity in mammalian cells. MMS creates methylated-base damage to genomic DNA, which, when excised by an alkylpurine DNA glycosylase, results in a high number of cytotoxic AP sites. We compared the viability of HeLa cells exposed to a dilution series of inhibitor alone to a combination of a fixed MMS concentration with the same dilution series of inhibitor by using a standard CellTiter Glo luminescence assay. This technique measures the number of viable cells in culture based on quantitation of the ATP present, which signals the presence of metabolically active cells. The assay was further optimized for 384-well plates, allowing a high-throughput testing of multiple hits at multiple concentrations, a scope of investigation previously impossible due to the very low throughput of the traditionally applied colony formation assay.
From the 223 compounds found positive in the gel-based APE1 assays, exclusion of the most promiscuous hits, that is, those that were both DNA binders and EndoIV-inhibitory, yielded a set of 170 compounds (Figure 3). This shortened group of hits was tested in the cell-based potentiation assay for their ability to dose-dependently enhance sensitivity of HeLa cells to the alkylating agent MMS.

E. coli Endo IV = biological target: T1, E. coli Endo IV (Escherichia coli, UniProt P0A6C1); experiment: E. coli Endo IV profiling counterscreen; format: biochemical; conditions: read-out: EndoIV IC50;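 further: selectivity counterscreen of candidate APE1 inhibitors against the bacterial endonuclease Endo IV, run in the same assay format as the primary APE1 high-throughput screen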
T1 construct: made in house
Description: In order to screen out nonselective compounds, such as non-specific DNA binders and inhibitors of related enzymes, we used a miniaturized ThO DNA displacement assay and a counterscreen against the bacterial endonuclease E. coli Endo IV, respectively, following the previously published protocols [21].
To probe the selectivity of the candidate APE1 inhibitors, we tested them against E. coli EndoIV [36], employing the same assay as used in the HTS.

APE1 [1] = biological target: T2, APE1 (Homo sapiens, UniProt P27695); experiment: Fluorogenic kinetic qHTS APE1 incision assay (primary screen and retest of cherrypicked samples); format: biochemical;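 further: purified APE1 cleaving a fluorophore/dark-quencher labelled 17-mer duplex DNA bearing a tetrahydrofuran AP site, fluorescence rise followed kinetically over the first 2 min, inhibition normalized to controls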
T2 construct: made in house
Protocol: All screening operations were performed on a fully integrated robotic system (Kalypsys, San Diego, CA) [28] with library plates screened proceeding from the lowest to the highest concentration to minimize compound carryover [26]. Vehicle-only plates, with DMSO being pin-transferred to the entire column 5–48 compound area, were included regularly throughout the screen in order to record any systematic shifts in assay signal. During the screen, reagent bottles were kept at 4°C and all liquid lines were covered with aluminum foil to minimize degradation.
Screening data were corrected and normalized, and concentration–effect relationships was derived using in-house developed algorithms [25].
To screen for inhibitors of APE1 incision activity, we employed a purified-enzyme biochemical assay with a model substrate featuring a red-shifted fluorescent reporter in combination with a dark non-emitting quencher. These moieties were incorporated as end labels onto a 17-mer double-stranded DNA fragment containing a centrally-located tetrahydrofuran AP site sugar mimetic, which serves as the APE1 cleavage site. Upon APE1-catalyzed strand scission immediately 5′ to the AP site analog, the shortened oligodeoxynucleotide carrying the fluorescent reporter spontaneously dissociates from the rest of the substrate, leading to an increase in fluorescence due to its spatial separation from the dark quencher (Figure 1A).
Using a high-speed whole-plate fluorescence imager, the assay data for the entire screen was conducted in kinetic mode, with the APE1 incision reaction being monitored over the initial linear time frame of 2 min (Figure 1B). Thus, any inhibition associated with each sample was computed from the alteration in fluorescence intensity over the time-course measurement period, after normalization against the appropriate controls (Figure 1B, inset).

APE1 [2] = biological target: T2, APE1; experiment: Fluorescence polarization (FP) displacement assay of APE1 binding to AP-DNA probe; conditions: read-out: FP IC50;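 further: TAMRA 5′-labeled duplex DNA with THF abasic site (5 nM) and APE1 (20 nM), Mg2+-free buffer, 15 min at room temperature, inhibition seen as lowered polarization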
Protocol: Double-stranded oligodeoxynucleotide containing tetrahydrofuran (THF) abasic site labeled with TAMRA at the 5′-end was used as the labeled binding probe. Inhibition of APE1 binding to labeled probe was detected by a decrease in the fluorescence polarization (FP) of the fluorophore. Briefly, 4 µL mixture of 20 nM APE1 and 5 nM probe contained in the enzymatic assay buffer from which Mg^2+ was omitted, was dispensed into 1536-well Greiner black solid bottom plates. Compounds (23 nL) were transferred via pintool, and after a 15-minute incubation at room temperature, fluorescence polarization was measured in a ViewLux High-throughput CCD imager (480 nm excitation and 540 nm emission) to determine the degree of probe displacement caused by the test compounds.

[3] = biological target: double-stranded 17-mer DNA fragment; experiment: ThO (Thiazole Orange) DNA displacement assay; format: binding; conditions: read-out: ThO-DNA binding IC50;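 further: miniaturized displacement of the intercalating dye from unlabeled duplex DNA, used to flag nonspecific DNA binders, chiefly intercalators, groove binders may be missed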
APE1 [4] = biological target: T2, APE1; experiment: Gel-based radiotracer (32P) APE1 incision assay; format: biochemical; set-up: concentration or dose not given beside the values; conditions: percent incision shown; entries 1-112;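 further: APE1 incision reactions ran 5 min at 37 °C, with cleaved product and intact substrate resolved electrophoretically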
APE1 [5] = biological target: T2, APE1; experiment: Gel-based APE1 incision assay with fluorescence (TAMRA) detection; format: biochemical
Protocol: To test the compounds’ inhibitory activity after the primary screen, two assays designed to monitor the cleavage of substrate to product through electrophoretic separation were utilized. The radiotracer incision assay, utilizing a ^32P-labeled substrate, was performed essentially as described [21], [31], [32]. Incision reactions utilizing ^32P-labeled substrate were carried out for 5 min at 37°C. After the addition of an equal volume of stop buffer (0.05% bromophenol blue and xylene cyanol, 20 mM EDTA, 95% formamide), the substrate and product were separated on a standard polyacrylamide denaturing gel and quantified by PhosphorImager analysis [32]. […] APE1 cleavage of the substrate results in a 18-mer TAMRA-labeled fragment which was separated by a non-denaturing polyacrylamide gel electrophoresis and quantitated in a Gel Doc XR imaging system, BioRad (Hercules, CA). The advantage of this assay is that it can be used in a relatively high throughput mode with the inhibitors tested at a range of concentrations (0.17 µM to 125 µM was used here). APE1 (0.15 nM) was added to a reaction mixture of 20 µL containing assay buffer (40 mM HEPES pH 7.5, 50 mM NaCl, 1 mM MgCl2 and 2 mM DTT), and labeled ds DNA substrate (final 75 nM). The mixture was incubated at RT for 15 min, and the reaction was stopped by the addition 20 µL of 2X dye stop solution (10% glycerol, 20 mM EDTA and bromophenol blue). Then 10 µL of the mixture was resolved on 20% polyacrylamide gel in 1X Tris-borate EDTA running buffer at 250 V for 40 min.
To eliminate false positive hits, all 595 confirmed molecules were tested for their ability to inhibit APE1 incision activity using biochemical assays that involve electrophoretic separation of the substrate and cleavage product.

[6] = initial quantitative high-throughput screen, read-out: APE1 qHTS IC50
[7] = retest of cherrypicked sample, read-out: APE1 Retest IC50
[8] = estimated IC50, fluorophore detection, entries 113-223, read-out: F-PAGE Assay IC50
[9] = entries 113-223: fluorophore detection, estimated IC50, read-out: Gel-based electrophoretic separation assay with fluorophore detection, estimated IC50 (column headed Radiotracer Assay (%Activity))

T2 sequence (P27695 whole entry): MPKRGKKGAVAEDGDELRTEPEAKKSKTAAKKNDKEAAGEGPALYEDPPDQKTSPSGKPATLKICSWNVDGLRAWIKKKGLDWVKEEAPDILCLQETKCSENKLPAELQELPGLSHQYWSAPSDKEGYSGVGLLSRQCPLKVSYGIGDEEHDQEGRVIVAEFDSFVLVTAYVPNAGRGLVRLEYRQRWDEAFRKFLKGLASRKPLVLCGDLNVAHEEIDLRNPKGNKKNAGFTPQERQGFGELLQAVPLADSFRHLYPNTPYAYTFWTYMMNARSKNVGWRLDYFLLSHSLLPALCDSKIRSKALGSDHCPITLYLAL

SMILES: COc1ccc2c(c1)c(=O)oc1cc(OCC(=O)N3CCC(C)CC3)ccc12 [MLS000088142]
MMS Assay (HeLa cells): I
IC50 (E. coli Endo IV): > 57 µM
IC50 (APE1 [1]; [6]): 15.6 µM
IC50 (APE1 [1]; [7]): 5 µM
IC50 (APE1 [2]): 14.1 µM
IC50 [3]: > 57 µM
Radiotracer Assay (%Activity) (APE1 [4]): 29%

SMILES: CC(C)C(=O)NC(C)C(c1cccs1)N1CCN(c2ccccc2)CC1 (centres unmarked) [MLS000092582]
MMS Assay (HeLa cells): I
IC50 (E. coli Endo IV): > 57 µM
IC50 [3]: > 57 µM

SMILES: O=C(O)c1ccccc1-c1ccc(/C=c2\sc3nc4cc(Br)cnc4n3c2=O)o1 [MLS000107874]
MMS Assay (HeLa cells): I
IC50 (E. coli Endo IV): > 57 µM
IC50 (APE1 [1]; [6]): 22.4 µM
IC50 (APE1 [1]; [7]): 8.9 µM
IC50 (APE1 [2]): 17.8 µM
IC50 [3]: > 57 µM
Radiotracer Assay (%Activity) (APE1 [4]): 11%

SMILES: O=C(COC(=O)/C=C/c1ccco1)Nc1ncc(Cl)cc1Cl [MLS000391557]
MMS Assay (HeLa cells): I
IC50 (E. coli Endo IV): > 57 µM
IC50 [3]: > 57 µM

IC50 (APE1 [1]; [6]): 14.1 µM
IC50 (APE1 [1]; [7]): 3.9 µM
IC50 (APE1 [2]): 2.5 µM
IC50 [3]: > 57 µM
Radiotracer Assay (%Activity) (APE1 [4]): 2%
SMILES: CC(=O)Nc1sc2c(c1-c1nc3ccccc3s1)CCN(C(C)C)C2 [MLS000419194]
MMS Assay (HeLa cells): P

SMILES: O=C1CC(=O)N(Cc2ccco2)C(=S)N1 [MLS000535286]
MMS Assay (HeLa cells): I
IC50 (E. coli Endo IV): > 57 µM
IC50 (APE1 [1]; [6]): 11.2 µM
IC50 (APE1 [1]; [7]): 12.6 µM
IC50 (APE1 [2]): > 57 µM
IC50 [3]: > 57 µM
Radiotracer Assay (%Activity) (APE1 [4]): 28%

SMILES: CC(C(=O)O)N1C(=O)/C(=C/C=C/c2ccco2)SC1=S (centres unmarked) [MLS000551724]
MMS Assay (HeLa cells): I
IC50 (E. coli Endo IV): > 57 µM
IC50 (APE1 [1]; [6]): 2.8 µM
IC50 (APE1 [1]; [7]): 0.9 µM
IC50 (APE1 [2]): 12.6 µM
IC50 [3]: > 57 µM
Radiotracer Assay (%Activity) (APE1 [4]): 9%

SMILES: O=C(O[C@@H]1OC2COC(=O)c3cc(O)c(O)c(O)c3-c3c(cc(O)c(O)c3O)C(=O)O[C@@H]([C@H]1O)[C@@H]2O)c1cc(O)c(O)c(O)c1 [MLS000563483]
MMS Assay (HeLa cells): I
IC50 (E. coli Endo IV): > 57 µM
IC50 (APE1 [1]; [6]): 0.07 µM
IC50 (APE1 [1]; [7]): 0.05 µM
IC50 (APE1 [2]): > 57 µM
IC50 [3]: > 57 µM
Radiotracer Assay (%Activity) (APE1 [4]): 16%

SMILES: Cn1cccc1/C=C1\C(=O)NC(=O)N(Cc2ccco2)C1=O [MLS000677191]
MMS Assay (HeLa cells): I
IC50 (E. coli Endo IV): > 57 µM
IC50 (APE1 [1]; [6]): 14.1 µM
IC50 (APE1 [1]; [7]): 4.5 µM
IC50 (APE1 [2]): > 57 µM
IC50 [3]: > 57 µM
Radiotracer Assay (%Activity) (APE1 [4]): 5%

SMILES: Cc1ccccc1CN1CCN(Cc2cc(=O)c3ccccc3[nH]2)CC1CCO (centres unmarked) [MLS001000225]
MMS Assay: potentiation of the genotoxic effect of methylmethane sulfonate (HeLa cells): I
IC50 (E. coli Endo IV): > 57 µM
IC50 [3]: > 57 µM

SMILES: Cn1cnnc1SCC(=O)Nc1ncc([N+](=O)[O-])s1 [MLS002252055]
IC50 (E. coli Endo IV): > 57 µM
IC50 (APE1 [5]; [8]): 5 µM
IC50 (APE1 [1]; [6]): 8.4 µM
IC50 (APE1 [1]; [7]): 6.5 µM
IC50 (APE1 [2]): > 57 µM
IC50 [3]: 40.8 µM

SMILES: O=C(C[C@@H]1C/C=C\C[C@H](Cc2ccc(F)cc2)C(=O)OC[C@@H](Cc2c[nH]c3ccccc23)NC1=O)NCCO [MLS002320105]
IC50 (E. coli Endo IV): > 57 µM
IC50 (APE1 [5]; [8]): 5.6 µM
IC50 (APE1 [1]; [6]): 11.9 µM
IC50 (APE1 [2]): > 57 µM
IC50 [3]: > 57 µM

SMILES: CC(C)(C)OC(=O)C[C@@H]1C/C=C\C[C@H](CC(=O)NCCO)C(=O)N2CCC[C@H]2COC1=O [MLS002320191]
IC50 (E. coli Endo IV): > 57 µM
IC50 (APE1 [5]; [8]): 7.9 µM
IC50 (APE1 [1]; [6]): 6.7 µM
IC50 (APE1 [1]; [7]): 20.4 µM
IC50 (APE1 [2]): > 57 µM
IC50 [3]: > 57 µM

SMILES: CC(C)(C)OC(=O)C[C@@H]1C/C=C\C[C@@H](CC(=O)NCCO)C(=O)N[C@H](Cc2c[nH]c3ccccc23)COC1=O [MLS002320206]
IC50 (E. coli Endo IV): > 57 µM
IC50 (APE1 [5]; [9]): 20 µM
IC50 (APE1 [1]; [6]): 15 µM
IC50 (APE1 [1]; [7]): 16.2 µM
IC50 (APE1 [2]): > 57 µM
IC50 [3]: > 57 µM

SMILES: O=C(C[C@@H]1C/C=C\C[C@H](NC(=O)OCC2c3ccccc3-c3ccccc32)C(=O)OC[C@@H]2CCCN2C1=O)NCCO [MLS002320455]
IC50 (E. coli Endo IV): > 57 µM
IC50 (APE1 [5]; [9]): 22.4 µM
IC50 (APE1 [1]; [6]): 9.5 µM
IC50 (APE1 [1]; [7]): 10.2 µM
IC50 (APE1 [2]): > 57 µM
IC50 [3]: > 57 µM
